Data on one compound can be found in US20220142967A1, “Methods and Compositions for the Treatment of Multiple Sclerosis” (SYMBIONYX PHARMACEUTICALS INC, priority 2018, published 2022).

Data set [1] relates to NFE2L2 (NRF2) binding sites. The data set is described as follows: Enrichment of NFE2L2 (NRF2) and other binding sites upstream of IDMF-regulated genes. The format is cell-based, human. As for the experimental part: RNA sample processing and microarray hybridizations were performed using the Affymetrix Human Genome U133 Plus 2.0 array platform. DNA microarray samples evaluated included IDMF- and vehicle-treated KCs (n=2 replicates per group). Samples were normalized using the robust multichip average (RMA) algorithm. Identification of probe sets with detectable expression was performed using the MAS 5.0 method, which identifies probe sets with above-background expression based upon the Wilcoxon signed rank test. To limit redundancy in downstream analyses, a single probe set was chosen to represent each protein-coding human gene featured on the microarray platform. This representative was chosen as the probe set with highest expression for each protein-coding human gene. These probe sets were then additionally filtered to include only those with detectable expression in at least 1 of the 4 samples (P<0.05, Wilcoxon signed rank test). Overall, this yielded a total of 12330 protein-coding genes that were included in analyses, with each gene represented by a single representative probe set. Bayesian linear models and moderated t-statistics were then used to evaluate differential expression for each of the 12330 genes (IDMF vs. CTL treatment; R package: limma). To control the false discovery rate (FDR), raw p-values generated from linear model analyses were adjusted using the Benjamini-Hochberg method.
As noted in the background section above, the transcription factor nuclear factor (erythroid-derived 2)-like 2 (NFE2L2/NRF2) has previously been associated with multiple sclerosis. In this study, IDMF-regulated genes were evaluated to determine the extent to which IDMF led to the enrichment of NFE2L2/NRF2 binding sites in promoter-proximal regions. For these analyses, a NFE2L2/NRF2 binding site was obtained from the JASPAR database (JASPAR ID: MA0150). This binding site partially matches the consensus sequence 5-[A/G]TGAC—AGCA-3: additional information can be obtained from http://jaspar.genereg.net/cgi-bin/jaspar_db.pl?ID=MA0150.1&rm=present&collection=CORE. Tests for enrichment were performed by scanning regions 1 kb, 2 kb or 5 kb upstream of protein-coding genes, including either all sequence (conserved=No) or only sequences conserved among mammalian species (conserved=Yes). A positive Z statistic indicates a trend towards increased NFE2L2 (NRF2) binding sites in sequences upstream of IDMF-increased […] (DEGs), as compared to all other expressed genes). P-values indicate the significance of the reported Z statistic (semiparametric generalized additive logistic models). Predicted targets include IDMF-increased DEGs with the NFE2L2 (NRF2) binding site identified within the scanned upstream region.

Data set [2] deals with cytokine-treated neonatal human epidermal keratinocytes (HEK). The data set is described as follows: qPCR of pro-inflammatory and antioxidant genes in cytokine-treated keratinocytes. The format is cell-based. The settings on record: 4 μg/ml, 24 h, IL-17A/IL-22/TNFα treated HEK. As to the method:
A separate assay study was conducted on cytokine-treated neonatal human epidermal keratinocytes (HEK) looking at the expression impact of IDMF and dimethyfumarate (DMF) on key pro-inflammatory and antioxidant genes. In preparation for the assay, HEK (p2; Cell Applications, San Diego) were cultured at optimal conditions [keratinocyte growth medium supplemented with KGM-Gold Bullet kit (Lonza, Switzerland)] to form a segmented monolayer. A cytokine mix of IL-17A/IL-22/TNFα (100 ng/ml; 100 ng/ml; 10 ng/ml; Antigenix, Huntington Station, N.Y.) was added and the cell cultures incubated for 24 h. […] Thereafter, each test material was added to the cultures at 4 μg/ml (final concentration) in triplicate and the cultures incubated for a further 24 hours.
After the 24-hour incubation with the test materials, the cells were observed through a Nikon Eclipse TS100 inverted microscope. No gross morphological changes were recorded. RNA was then extracted and purified with NucleoSpin RNA II kit from Machery-Nagel, Bethlehem, Pa., using QiaCube robotic station (Qiagen, Valencia, Calif.). Purified total RNA was assessed at 260 nm and 280 nm with NanoDrop Lite (Thermo Fisher Scientific, Waltham, Mass.), pure samples with A260A/280 and A260/A230 ratios of >1.7 were standardized and the expression of the genes of interest (Table 3) was measured by real-time quantitative PCR with BioRad iCycler iQ Detection System using custom-made PCR arrays (Qiagen, Valencia, Calif.; part #24caph12190), 5×All-In-One 1st Strand cDNA Synthesis Mix (Bioland Scientific, Paramount, Calif.) and 2×qPCR Master Mix (Bioland). Efficiency ΔΔCt method was used for quantification of results, after the normalization of gene expression to GAPDH/PPIA housekeeping gene. Genes were considered differentially expressed if the level of expression was reasonably high (less than 30 cycles to detect) and the modulation was >1.7. […] Even assuming IDMF fully metabolizes to MMF, there is still considerably more MMF from DMF as opposed to the same amount, based on weight, of IDMF.
Background: In qPCR the cycle at which signal appears reflects the starting amount.

The target in data set [3] is T1, carboxylesterase 2 (CES2) (Homo sapiens, UniProt O00748).
T1 sequence (O00748 27-559): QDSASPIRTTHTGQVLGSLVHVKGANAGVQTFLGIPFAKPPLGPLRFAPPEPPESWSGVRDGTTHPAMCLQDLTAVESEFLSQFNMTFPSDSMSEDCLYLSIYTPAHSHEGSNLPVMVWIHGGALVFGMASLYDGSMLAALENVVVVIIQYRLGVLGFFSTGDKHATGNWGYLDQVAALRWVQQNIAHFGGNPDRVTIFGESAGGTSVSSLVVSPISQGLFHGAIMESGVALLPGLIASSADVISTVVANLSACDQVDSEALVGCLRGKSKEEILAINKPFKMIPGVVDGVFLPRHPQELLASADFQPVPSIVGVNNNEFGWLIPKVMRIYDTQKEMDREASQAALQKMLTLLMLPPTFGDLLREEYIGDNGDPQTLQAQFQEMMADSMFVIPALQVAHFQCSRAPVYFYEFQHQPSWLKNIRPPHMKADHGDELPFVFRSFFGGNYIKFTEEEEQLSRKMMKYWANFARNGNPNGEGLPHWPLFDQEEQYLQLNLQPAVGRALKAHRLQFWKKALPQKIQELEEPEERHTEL
Briefly: Carboxylesterase hydrolysis IDMF v DRF. The note with it: 20 μl of 1 mg/ml CES2, 37° C., pH 7.4. The format is in vitro ADME. As to the method: 20 μl of 1 mg/ml carboxylesterase 2 (CES2) was added to each solution and the solutions incubated at 37° C. for the time periods set forth in Table 5. […] Although tolerable for normal patients, HES is undesirable and detrimental for those individuals have kidney and/or liver issues

Where a name gives a salt, the structure may show the parent alone.

Regarding `COC(=O)/C=C/C(=O)O[C@H]1CO[C@H]2[C@@H]1OC[C@H]2OC(=O)/C=C/C(=O)OC` [IDMF, isosorbide di-(methyl fumarate)], in data set [1] (FDR<0.10 with FC<0.67, P=1.16E-08), the “enrichment of NF-kappaB binding sites upstream of IDMF-decreased genes” value is reported as “strongly enriched”. Also, the “Z Statistic, enrichment of NFE2L2 (NRF2) binding sites upstream of IDMF-increased DEGs” value came to 4.74 in data set [1] (Region 1 kb, Conserved No); 5.91 in data set [1] (Region 1 kb, Conserved Yes); 3.37 in data set [1] (Region 2 kb, Conserved No); 3.21 in data set [1] (Region 2 kb, Conserved Yes); 2.11 in data set [1] (Region 5 kb, Conserved No); 1.05 in data set [1] (Region 5 kb, Conserved Yes). The CXCL3 fold change in data set [2] was −1.1 fold. The IL8 fold change in data set [2] was 1.4 fold. In addition, the NFE2L2 fold change in data set [2] is on record as 2.6 fold. For the same compound, the PTGS2 fold change in data set [2] is 1.2 fold. Besides, the remaining parent compound turned out to be 1.086 mM in data set [3] (0 minutes) and 0.113 mM in data set [3] (15 minutes).
